Source: patent US6469027B1, “N-methyl-D-aspartate (NMDA) receptor blockers for the prevention of atherosclerosis” (The Board of Regents of the University of Nebraska, priority 1996, dated 2002)

Experiments:
N-VSMC = experiment: Cell proliferation (cell number) of N-VSMC cultures; assay type: cell-based, chicken; details: 0.01 to 100 μM for 36 h
TA-VSMCs = experiment: [3H]thymidine labeling (DNA synthesis) in TA-VSMCs; assay type: cell-based; details: 0.1 to 1 mM
Excerpt: Effect of calcium channel activation on DNA synthesis. Effect of glutamate receptor calcium channels and L-type calcium channels activation was examined by measuring [^3H]thymidine labeling.

protein kinase C = experiment: Distribution of protein kinase C activity in N-VSMC fractions; assay type: cell-based, chicken; details: 100 μM H[cys] for 60 min
Description: FIGS. 6A-6C show the distribution of protein kinase C in the presence of H[cys], TPA and TGF β1. […] Cells were harvested and separated into cytosol membrane particulate and nuclear fractions, and PKC activity measured as described in Material and Methods. The data are reported as the mean ± standard error of eight separate determinations. (B) Immunolocalization of PKC epsilon in M- and N-VSMC. Cell cultures were plated and grown for three days prior to immunohistochemistry staining of PKC epsilon in the N-VSM (bottom) contrasted with the low levels of expression of the enzyme in M-VSMC (top). The staining can be seen in cytosol, nucleus and associated with intracellular fibers. (C) Use of PKC epsilon IgG to detect enzyme in M- and N-VSMC by western blot. The C-lane represents purified recombinant PKC epsilon; M and N are samples derived from mesoderm (abdominal ) and neurocrest & (thoracic) smooth muscle cells, respectively.
Protein kinase C activity: Protein kinase C activity was determined using a method of a previously published procedure with modifications. Wrenn, R.W. et al. (supra). […] Each of these fractions was analyzed for total PKC activity in the presence and absence of calcium chloride as described previously. […]

[1] = test system: VSMC isolated from abdominal; experiment: [3H]thymidine incorporation (DNA synthesis) in abdominal aorta VSMC; assay type: cell-based, chicken; details: abdominal VSMC compared with N-VSMC
Excerpt: Smooth Muscle Culture: The thoracic (N) and abdominal (M) aorta of normal 16 and 18-day embryos were cleaned of fat, and the intima-media was isolated from the adventitia. The intima-media was enzymatically dispersed into a single cell suspensions by a combination of collagenase and elastase followed by trypsin. VSMC were placed in primary culture at a constant density of 2×10^4 cells/cm^2 in multiwell plates or 100 mm culture plates in Medium 199 supplemented with 10% fetal bovine serum (FMS) and 2 mM glutamine, in an atmosphere of 95% air: 5% Co2 at 37° C. Primary cultures were grown for 7 days before they were seeded into first passage at the same cell density and grown to confluence. Experiments were carried out between passages 3-6. Experimental conditions for all cells included 48 h in Medium 199 supplemented with 1% FBS prior to initiating and experiment.
DNA Synthesis: Growth factors were added directly to quiescent VSMCs in Medium 199 as described above. The cells were pulsed between 4-6 h with a final concentration of 2-5 μCi/ml [^3H]thymidine added at the times and for the periods indicated in the figure legends. The cells were washed, and the incorporation of [^3H]thymidine into acid insoluble material was determined as previously described. Den-Heijer, M. et al. (1996), Hyperhomocystinemia as a risk factor for deep-vein thrombosis. N. Eng. J. Med. 334(12):759-762.

c-fos = c-fos mRNA in N-VSMC (RNA blot); assay type: cell-based, chicken
Description: FIGS. 3A, 3B and 3C are RNA blot analyses of c-fos and c-myb mRNA isolated from N-VSMC cultures. Cultures were incubated in the absence and presence of 200μM H[cys] for 0, (lane 1); 15 min, (lane 2); 30 min, (lane 3); 45 min, (lane 4) and 60 min, (lane 5); and analyzed for c-fos expression. In FIG. 3B, the time course of c-myb MRNA induction in the presence of 200μM H[cys] for 0 h, (lane 1); 8 h, (lane 2); 16 h, (lane 3); 24 h, (lane 4). The c-fos transcripts were analyzed by northern blot and normalized to β actin expression. The amount of c-myb mRNA levels were normalized to estrogen receptor (ER) transcripts as determined by RT-PCR. […] The amount of c-myb mRNA levels were normalized to estrogen receptor (ER) transcripts as determined by RT-PCR. The amount of specific radiolabeling in the autoradiograph was quantified by scanning densitometry. The size of the c-Myb protein is 75 kilodaltons. The 75 kilodalton band is defined as c-Myb because immunoprecipitation of this protein was not detected in the presence of synthetic polypeptide [[…] encoded by sequences 1080-1133].
RNA Blot Analysis: Total RNA was isolated from VSMC derived from thoracic and abdominal aorta by homogenization, and lysis with guanidinium isothiocyanate was followed by phenol-chloroform extraction. […]

Myb protein = experiment: Expression of Myb protein in rabbit aortic cells; assay type: cell-based
Description: For each of the following experiments, aortic smooth muscle cells were obtained from 2-3 lb. New Zealand rabbits; these cells were cultured as described above, and evaluated for their responses to Hcy.

N[C@@H](CCS)C(=O)O [homocysteine]
cell number in the absence of serum (N-VSMC): no increase in cell number | DNA synthesis increased (TA-VSMCs): 6 fold | distribution of PKC activity (protein kinase C): significant increase in membrane-associated PKC | effect on DNA synthesis [1]: did not respond similarly | c-fos mRNA transcripts induced (c-fos; 200 μM homocysteine): 15 fold | c-fos induction (c-fos; neural crest derived smooth muscle cells): induced | expression of the Myb protein (Myb protein): dose-responsive expression
